Reference: patent US20250099485A1, “COMPOSITIONS FOR PROMOTING HAIR GROWTH” (ESTETRA SRL, priority 2021, published 2025)

Key:
[1] = test system: Normal Human Epidermal Keratinocytes (NHEKs); assay: Colonization of acellular area (IBIDI gap closure), keratinocytes; assay type: cell-based; conditions: 6 h and 24 h contact, cell gives time of significant effect; for NHEK Proliferation & Migration (colonization of acellular area vs ethanol control): absence of MMC; for NHEK Migration (+MMC) (colonization of acellular area vs ethanol control): presence of mitomycin C
Procedure: The study consists in an in vitro assay aiming to evaluate the properties of E4 and E2 at 4 concentrations each on keratinocytes and fibroblasts. In this assay, the measurement of the colonization of a standard acellular surface generated from a confluent monolayer of cells using a dedicated culture device (IBIDI chamber) is performed. The assay is performed in absence and in presence of a proliferation inhibitor to focus on cell proliferation and migration or on migration only, respectively.
The study was performed using cultures of Normal Human foreskin-derived Epidermal Keratinocytes (NHEKs, Lonza). The cells were grown in serum free Epilife medium (ThermoFisher Scientific) supplemented with Human Keratinocyte Growth Supplement (HKGS, ThermoFisher Scientific) and antibiotics. The cells were maintained in a humidified incubator at 37° C. with a 5% CO2 atmosphere.
Cells were plated in 2-well silicone inserts with a defined cell free gap (IBIDI chambers; IBIDI GmbH, 80209) that was previously inserted on 12-well culture plates. This culture device allows to create a standardized 500 μm±100 μm cell free gap for monitoring cell colonization. 24 h after seeding, when the culture reached high confluency, cells in the insert were treated, or not, with mitomycin C (MMC) at 10 μg/ml during 2 h. After these 2 hours, the insert was removed, and cells were treated with E2 or E4 in presence or not of MMC for additional 2 h. Then, if appropriate, the culture medium was removed and cells were treated with E2 or E4 for 22 h, in absence of MMC.
For the assay, keratinocytes were plated in Epilife medium without HKGS and all the treatments were performed in this medium. Fibroblasts were plated in DMEM medium containing only 2.5% of FBS and the treatments were performed in absence of FBS.
E2 and E4 were applied at 4 concentrations each (10^−7M, 10^−8M, 10^−9M, 10^−10M). In parallel, cells were treated with a positive control (HKGS 1% for human keratinocytes and PDGF-BB at 10 ng/ml for human fibroblasts).
To monitor cell colonization and to evaluate the gap closure rate, pictures of the gap were taken after different times: at time 0 h, corresponding to the beginning of the treatment with E2 or E4 and to the removal of the culture insert, at time 6 h and at time 24 h (corresponding to the end of the treatments with E2 or E4). Pictures were taken with a microscope Zeiss (Axiover 25-10× objective) and with a camera Invenio2EIII (DeltaPix—Lux-Optic). The colonized areas were quantified from the pictures by the use of the WimAsis platform—WimScratch software. For each insert, 3 pictures were taken at each time. As each condition was performed in triplicates, it means a total of 9 pictures per condition and per time point of acquisition

[2] = test system: CD34 positive cells in the suprabulbar ORS; assay: Hair follicle organ culture: CD34 expression, stem cell progeny; assay type: cell-based, human; conditions: vs vehicle
Procedure: 12-44 full-length frontotemporal hair follicles (HF) were obtained from four human female donors >50 years old. Donors were caucasian female subjects […], respectively (Donor 1: 12 temporal anagen HFs; Donor 2: 29; Donor 3: 44; Donor 4: 32). After microdissection from skin as described (Edelkamp et al., Methods Mol Biol, 2020, 2154:105-119; and Langan et al., Exp Dermatol, 2015, December; 24(12):903-1), HFs were placed in adequate culture medium and allowed a 24 h rest period to allow them to recover from the trauma of microdissection. Test substance (either vehicle (0.3% EtOH) or E4 at concentrations of 30 μM, 3 μM or 300 nM) was added to the medium at the end of the 24 h. Total culturing time was 5-7 days depending on the studied parameters and the experimental question. The experimental design for the hair follicle organ culture experiment is depicted in FIG. 12. Longer term culture experiments may be used to analyze the capacity to delay the onset of catagen.
CD34 is a marker expressed by the progeny of HF bulge stem cells. It is expressed in the most external layer of the outer root sheet (ORS) below the isthmus (sub-bulge to suprabulbar regions) (Purba et al., BioEssays, 2014, May; 36(5):513-25). CD34 expression and percentage of CD34^+ cells were analyzed in the suprabulbar ORS.

[3] = test system: human epidermal keratinocytes; assay: Wound healing gene expression RT-qPCR array, keratinocytes; assay type: cell-based; conditions: 10^−7M, 15 h, relative to ethanol control
Source text: The healing properties of E4 were investigated at the transcriptional level by studying gene expression changes by RT-qPCR. 84 genes qPCR arrays focusing on the wound healing process were used. These arrays contain genes important for the three phases of wound healing process, including extra-cellular matrix (ECM) remodeling factors, inflammatory cytokines and chemokines as well as growth factors and major signaling molecules. The changes in gene expression were interpreted in a dermo cosmetic context in order to highlight the potential benefits of the E4 towards wound healing.
After 24 h seeded on 25 cm^2 culture flasks (T25), cells were treated with E4 during 15 h. […]
The RNA concentration was determined by spectrophotometric measurement (QIAxpert, Qiagen) and the RNA quality was analyzed by capillarity electrophoresis (Agilent Bioanalyzer 2100—Agilent RNA 6000 Nano Kit). […]
The qPCR method was used to quantify the expression changes of specific markers in the cDNA populations. […]
The amplification of target genes was performed following the supplier's recommendations thanks to a “HotStart Taq DNA Polymerase” and to the use of SYBR Green as detection method. The SYBR Green is a marker emitting fluorescence once inserted between the paired bases of nucleic acids. The fluorescence intensity is thus directly proportional to the quantity of produced amplicons. […]

C[C@]12CC[C@@H]3c4ccc(O)cc4CC[C@H]3[C@@H]1[C@@H](O)[C@@H](O)[C@@H]2O [E4, 1,3,5 (10)-estratrien-3,15alpha,16alpha,17beta-tetrol]
NHEK Proliferation & Migration (colonization of acellular area vs ethanol control) ([1]; 10^−7M): significantly increased the colonization of the acellular area | NHEK Migration (+MMC) (colonization of acellular area vs ethanol control) ([1]; 10^−7M): significantly increased the colonization of the acellular area | NHEK Proliferation & Migration (colonization of acellular area vs ethanol control) ([1]; 10^−10M): significantly increased the colonization of the acellular area | NHEK Migration (+MMC) (colonization of acellular area vs ethanol control) ([1]; 10^−10M): significantly increased the colonization of the acellular area | increased percentage of CD34 positive cells in the suprabulbar ORS ([2]; 300 nM): tendentially | increased percentage of CD34 positive cells in the suprabulbar ORS ([2]; 3 μM): significantly | increased percentage of CD34 positive cells in the suprabulbar ORS ([2]; 30 μM): tendentially | MMP2 (Matrix metalloproteinase-2) expression, FC [3]: 1.1434 Fold Change (FC) | TIMP1 (Metalloproteinase inhibitor 1) expression, FC [3]: 0.8949 Fold Change (FC)
